Laboratory results reported in PMC5120274, “Characterization of the Annonaceous acetogenin, annonacinone, a natural product inhibitor of plasminogen activator inhibitor-1” (Scientific Reports, 2016).

Experiments:
[1] = system: T1, PAI-1 T94A; assay: chromogenic screening assay with PAI-1 mutant T94A; assay type: biochemical
T1 construct: made in house
Description: (§1) Compounds from our local collection BioCIS and from the Prestwick compound library (Prestwick chemicals, Illkirch, FR), a collection containing only FDA approved drugs (around 4000 compounds in total) were tested in a chromogenic assay measuring the inhibition rate of tPA-catalyzed spectrozyme® tPA hydrolysis in the presence of PAI-1. Compounds (20 μL, final concentration 50 μM, 1% DMSO) were dispensed in a 96 well half area Greiner plate. A mixture containing 20 μL of PAI-1 (final concentration 20 nM) and 80 μL of Spectrozyme-tPA (final concentration 400 μM) was then added, and the mixture pre-incubated for 45 minutes at 37 °C. At the end of pre-incubation time, 90 μL of the mixture were added to another 96 well half area plate containing 10 μL tPA (final concentration 10 nM). The kinetic was then measured at 405 nm for 45 min at 37 °C in an Envision microplate reader. Progress curves were fitted using the pseudo first order equation to determine the apparent rate constant k.
(§2) Mutants were constructed as previously described. […] The effect of annonacinone was measured at 50 μM for each mutant in our chromogenic screening assay. […] For each mutant, the ratio between the apparent rate constants with and without 50 μM annonacinone were calculated and then compared to that of PAI-1 WT to determine the % of annonacinone activity.

[2] = target: T2, PAI-1/vitronectin complex (Homo sapiens, UniProt P05121); assay: chromogenic kinetic assay in presence of vitronectin; assay type: biochemical
T2 construct: purchased Stago BNL (Asnières sur Seine, FR)
Description: Compounds (20 μL) were dispensed in a 96 well half area Greiner plate. A mixture containing 20 μL of PAI-1 (final concentration 20 nM) and 40 μL of a chromogenic substrate (Spectrozyme-tPA, final concentration 400 μM) was then added, and the mixture pre-incubated for 20 minutes at 37 °C. 40 μL of vitronectin (final concentration 37.5 nM) was added and the mixture further pre-incubated for 20 min at 37 °C. At the end of pre-incubation time, 90 μL of the PAI-1/vitronectin/compound mixture were added to 10 μL of tPA (final concentration 10 nM) and the tPA catalysed substrate hydrolysis reaction was followed for 45 min at 405 nm. Progress curves were then fitted using the pseudo first order equation to determine the apparent rate constant k.

[3] = system: FeCl3-occluded venules; assay: murine model of rtPA-induced thrombolysis by intravital microscopy; assay type: in vivo, mice
Description: Thrombolysis was evaluated in an in vivo mouse model according to the method previously described[18] with modifications. Briefly, platelets of anesthetized mice were fluorescently labeled in vivo by injection of rhodamine 6G (3.3 mg/kg) into the retro-orbital plexus, then thrombus formation was induced by topical deposition on the mesenteric vessels of ferric chloride solution (FeCl3; 15%) in 4- to 5-week-old mice. Thrombus growth was monitored in real-time with an inverted epifluorescent microscope (x10) (Nikon Eclipse TE2000U). Within the 10 minutes after total occlusion of the vessel, the effect of annonacinone was evaluated on the efficiency of rtPA-induced thrombolysis by applying directly on the occluded vessels a thrombolytic cocktail (40 μL) composed of 40 μM rtPA (Actilyse®), 200 μM Argatroban (Arganova®) and 0.2% DMSO or 20 μM annonacinone. The incidence of the recanalization, defined as a partial or complete restoration of flow associated to a decrease of more than 50% of the initial thrombus size, and the evolution of thrombus size were determined during 1 hour.

[4] = system: T3, human antithrombin; assay: continuous chromogenic assay: fondaparinux-catalyzed inhibition of factor Xa by antithrombin; assay type: biochemical; conditions: antithrombin pre-incubated with 50 μM annonacinone 20 min 37 °C; control buffer 7.9 × 10^−3
T3 construct: purchased LFB (Aclotin)
Description: 5 μM human α1-antitrypsin (Sigma) or human antithrombin (Aclotin®, LFB) were incubated with 50 μM annonacinone (or 0.5% DMSO in reaction buffer as control) for 20 min at 37 °C. The mixtures containing α1-antitrypsin were diluted in N-Methoxysuccinyl-Ala-Ala-Pro-Val p-nitroanilide (Sigma) containing solution and substrate hydrolysis kinetic was triggered by addition of neutrophil elastase (Sigma) to a final volume of 100 μL containing 13 nM α1-antitrypsin, 130 nM annonacinone, 82 μM chromogenic substrate and 5 nM neutrophil elastase. The mixtures containing antithrombin were diluted in fondaparinux (Arixtra®, GlaxoSmithKline) and CS-11(22)-FXa (Hyphen Biomed) containing solution and substrate hydrolysis kinetic was triggered by addition of factor Xa (Stago BNL) to a final volume of 100 μL containing 51 nM antithrombin, 510 nM annonacinone, 200 μM chromogenic substrate, 5 μM fondaparinux and 2 nM factor Xa.

[5] = system: T4, PAI-1 Y79A; assay: chromogenic screening assay with PAI-1 mutant Y79A; assay type: biochemical
T4 construct: made in house
Description: as §1, §2

T2 sequence (P05121 24-402, one chain of several): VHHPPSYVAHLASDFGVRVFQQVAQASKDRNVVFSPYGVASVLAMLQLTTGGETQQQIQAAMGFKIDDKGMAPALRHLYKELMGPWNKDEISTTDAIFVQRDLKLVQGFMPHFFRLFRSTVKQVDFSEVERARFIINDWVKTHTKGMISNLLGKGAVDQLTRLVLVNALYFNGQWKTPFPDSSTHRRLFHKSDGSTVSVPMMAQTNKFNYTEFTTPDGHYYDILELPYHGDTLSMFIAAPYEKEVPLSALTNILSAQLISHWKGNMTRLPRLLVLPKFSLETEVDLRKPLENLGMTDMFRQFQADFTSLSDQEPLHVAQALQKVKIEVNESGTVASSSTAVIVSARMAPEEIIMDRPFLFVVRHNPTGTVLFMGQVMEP

`CCCCCCCCCCCC[C@@H](O)[C@H]1CC[C@H]([C@H](O)CCCCC(=O)CCCCC[C@@H](O)CC2=C[C@H](C)OC2=O)O1` [Annonacinone] was tested, and the “kapp Annonacinone 50 μM” value ([1]; DMSO 1% 6,6 ± 0,9 × 10^−3, n = 4) was 2,3 ± 0,4 × 10^−3 s^−1, the “Annonacinone activity 50 μM (% WT)” value ([1]; ratio of kapp relative to WT (100%)) was 42 ± 6 % WT and the “activity on PAI-1 bound to vitronectin” value ([2]; 50 μM) was “inactive”. The “kapp, annonacinone added to PAI-1 pre-incubated with vitronectin” value ([2]; 50 μM, PAI-1 pre-incubated with VN 20 min 37 °C, DMSO 1% 1.05 ± […] 10^−2) was 2.16 ± 0.17 × 10^−2 s^−1, the “kapp, annonacinone pre-incubated with PAI-1 before addition of vitronectin” value ([2]; 50 μM, pre-incubation with PAI-1 20 min 37 °C, then VN 20 min 37 °C) was 2.39 ± 0.32 × 10^−3 s^−1 and the IC50 ([2]; annonacinone pre-incubated with PAI-1 before vitronectin) was 10 ± 2 µM. For the same compound, the incidence of recanalization ([3]; 20 μM annonacinone applied locally with rtPA 40 μM and Argatroban 200 μM, 1 hour, DMSO 0.2% control 28%) was 71%, the “total number of vessels recanalized per group of 7 mice” value ([3]; 20 μM annonacinone with rtPA 40 μM and Argatroban 200 μM, 1 hour, DMSO control 2/7) was 5/7 and the “decrease of thrombus size from initial size” value ([3]; 35 minutes of treatment, 20 μM annonacinone with rtPA and Argatroban, n = 7, DMSO 3.4 ± 8.5%) was 29.7 ± 7.7%. The “kapp of factor Xa inhibition by fondaparinux-bound antithrombin” value [4] was 0.0083 s⁻¹, the “kapp Annonacinone 50 μM” value ([5]; DMSO 1% 4,0 ± 1,0 × 10^−3, n = 4) was 4,8 ± 0,9 × 10^−3 s^−1 and the “Annonacinone activity 50 μM (% WT)” value ([5]; ratio of kapp without/with annonacinone relative to WT (100%)) was 12 ± 2 % WT.
